# Patent US20110230472A1, “RING-FUSED AZOLE DERIVATIVE HAVING PI3K-INHIBITING ACTIVITY” (Shionogi & Co., Ltd., priority 2008, published 2011)
# Tests used:
# [1] = molecular target: T1, human ether-a-go-go related gene (hERG) channel (Homo sapiens, UniProt Q12809); assay: hERG test, whole-cell patch-clamp; type: cell-based; conditions: HEK293 cell expressing hERG; applied for 10 minutes; concentration not given
# T1 construct: expressed in transfected cells; host or cells: HEK293
# From the text: For the purpose of risk evaluation of QT interval extension of electrocardiogram, the activity on delayed rectification K^+ current (IKr), which plays an important role in a cardiac ventricle repolarization process, was examined using the HEK293 cell that was made to express human ether-a-go-go related gene (hERG) channel.
# Using an automatic patch-clamp system (PatchXpress 7000A, Axon Instruments Inc.), by a whole-cell patch-clamp method, after the cell was maintained at a membrane potential of −80 mV, IKr induced upon applying depolarizing stimulation of +50 mV for 2 seconds and further applying repolarizing stimulation of −50 mV for 2 seconds was recorded. After generated electric current became stable, a test substance dissolved at an intended concentration in extracellular fluid (137 mmol/L NaCl, 4 mmol/L KCl, 1.8 mmol/L CaCl2.2H2O, 1 mmol/L MgCl2.6H2O, 10 mmol/L glucose, 10 mmol/L HEPES (4-(2-hydroxyethyl)-1-piperazineethanesulfonic acid), pH=7.4) was applied to the cell for 10 minutes under room temperature condition. From the obtained IKr, the absolute value of the maximum tail current was measured using analysis software (DataXpress ver. 1, Molecular Devices Corporation) and the value of the electric current in a maintained membrane potential as baseline. Moreover, an inhibition ratio for the maximum tail current prior to the application of the test substance was calculated and then compared with a group of media-application (0.1% dimethylsulfoxide solution) to evaluate influence of the test substance on IKr.
# [2] = Solubility test; type: physicochemical; conditions: kinetic from dmso stock; artificial intestinal juice pH 6.8, 1% DMSO, 25° C. for 16 hours
# Summary of the method: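 Kinetic solubility with 1% DMSO: compound from 10 mmol/L DMSO stock spiked into pH 6.8 phosphate artificial intestinal juice, held 16 h at 25 °C, then suction-filtered. Filtrate diluted twofold in methanol/water (1/1) and quantified by HPLC or LC/MS/MS via absolute calibration.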
# [3] = molecular target: T2, CYP2C9 (Homo sapiens, UniProt P11712); assay: CYP inhibition test, pooled human liver microsome, CYP2C9; type: in vitro ADME; conditions: methyl-hydroxylation of tolbutamide
# T2 construct: enzyme: pooled human liver microsome 0.2 mg protein/mL; from tissue; host or cells: pooled human liver microsome
# T2 sequence (P11712 whole entry): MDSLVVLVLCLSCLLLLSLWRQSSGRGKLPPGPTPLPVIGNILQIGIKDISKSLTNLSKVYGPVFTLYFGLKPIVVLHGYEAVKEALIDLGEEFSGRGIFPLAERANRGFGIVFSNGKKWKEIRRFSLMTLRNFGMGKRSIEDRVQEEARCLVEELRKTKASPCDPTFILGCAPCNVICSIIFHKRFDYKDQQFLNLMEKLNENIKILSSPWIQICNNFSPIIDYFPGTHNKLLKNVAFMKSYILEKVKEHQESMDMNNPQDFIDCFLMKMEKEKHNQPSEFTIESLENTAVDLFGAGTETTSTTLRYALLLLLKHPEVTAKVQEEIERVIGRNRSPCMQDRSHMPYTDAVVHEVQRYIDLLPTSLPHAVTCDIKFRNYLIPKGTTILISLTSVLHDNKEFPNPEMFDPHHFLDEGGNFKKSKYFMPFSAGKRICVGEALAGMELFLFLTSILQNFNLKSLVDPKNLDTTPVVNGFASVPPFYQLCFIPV
# From the text: (§1) O-de-ethylation of 7-ethoxyresorufin (CYP1A2), methyl-hydroxylation of tolbutamide (CYP2C9), 4′-hydroxylation of mephenyloin (CYP2C19), O-demethylation of dextromethorphan (CYP2D6), and hydroxylation of terfenadine (CYP3A4), which are typical substrate for metabolic reactions of human main CYP5 molecular species (CYP1A2, 2C9, 2C19, 2D6, and 3A4), were adopted as indexes.
# (§2) The reaction conditions are as follows: substrate: 0.5 μmol/L of ethoxyresorufin (CYP1A2), 100 μmol/L of tolbutamide (CYP2C9), […] of S-mephenyloin (CYP2C19), 5 μmol/L of dextromethorphan (CYP2D6), and 1 μmol/L of terfenadine (CYP3A4); reaction time; 15 minutes; reaction temperature: 37° C.; enzyme: pooled human liver microsome 0.2 mg protein/mL; test drug concentration: 1, 5, 10, and 20 μmol/L (4 points).
# (§3) In a 96-well plate, as a reaction solution, five kinds of substrates, a human liver microsome, and a test drug were added to 50 mmol/L Hepes buffer solution in the aforementioned ratio. A coenzyme NADPH was added to start a metabolic reaction, which is an index. After reacting at 37° C. for 15 minutes, a solution of methanol/acetonitrile (1/1 (v/v)) was added to quench the reaction. After centrifugation at 3000 rpm for 15 minutes, resorufin (CYP1A2 metabolite) in the supernatant was quantitated with a fluorescence multilabel counter, and hydroxylated tolbutamide (CYP2C9 metabolite), 4′-hydroxylated mephenyloin (CYP2C19 metabolite), […], terfenadine in alcohol form (CYP3A4 metabolite) were quantitated with LC/MS/MS.
# (§4) The case wherein only DMSO (a solvent which dissolved a drug) was added to a reaction system was defined as a control (100%). When a test drug solution was added, the remaining activity (%) at each concentration was calculated, and then IC50 was calculated with a concentration and an inhibition ratio by an inverse estimation using a logistic model.
# [4] = molecular target: T3, CYP1A2 (Homo sapiens, UniProt P05177); assay: CYP inhibition test, pooled human liver microsome, CYP1A2; type: in vitro ADME; conditions: O-de-ethylation of 7-ethoxyresorufin
# T3 construct: enzyme: pooled human liver microsome 0.2 mg protein/mL; from tissue; host or cells: pooled human liver microsome
# T3 sequence (P05177 1-516): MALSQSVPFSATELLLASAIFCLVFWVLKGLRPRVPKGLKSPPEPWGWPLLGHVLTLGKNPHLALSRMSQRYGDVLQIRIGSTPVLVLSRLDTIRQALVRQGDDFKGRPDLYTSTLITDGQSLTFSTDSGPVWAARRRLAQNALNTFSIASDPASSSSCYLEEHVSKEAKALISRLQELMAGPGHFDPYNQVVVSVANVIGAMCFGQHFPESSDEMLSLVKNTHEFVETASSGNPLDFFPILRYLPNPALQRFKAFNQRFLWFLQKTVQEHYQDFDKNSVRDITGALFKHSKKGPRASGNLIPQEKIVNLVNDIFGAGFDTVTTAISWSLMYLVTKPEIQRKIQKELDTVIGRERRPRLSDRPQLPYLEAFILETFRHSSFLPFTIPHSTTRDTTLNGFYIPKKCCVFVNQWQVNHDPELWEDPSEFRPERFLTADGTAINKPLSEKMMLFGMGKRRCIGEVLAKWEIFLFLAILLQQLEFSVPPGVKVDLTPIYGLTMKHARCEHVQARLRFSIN
# From the text: as §1, §2, §3, §4
# [5] = molecular target: T4, PI-3 kinase γ (Homo sapiens, UniProt P48736); assay: PI3Kγ inhibitory activity, PI3-kinase HTRF assay (inhibition ratio); type: biochemical; conditions: 0.5 h; for inhibition at 50 µM: compound at 50 μM
# T4 sequence (P48736 whole entry): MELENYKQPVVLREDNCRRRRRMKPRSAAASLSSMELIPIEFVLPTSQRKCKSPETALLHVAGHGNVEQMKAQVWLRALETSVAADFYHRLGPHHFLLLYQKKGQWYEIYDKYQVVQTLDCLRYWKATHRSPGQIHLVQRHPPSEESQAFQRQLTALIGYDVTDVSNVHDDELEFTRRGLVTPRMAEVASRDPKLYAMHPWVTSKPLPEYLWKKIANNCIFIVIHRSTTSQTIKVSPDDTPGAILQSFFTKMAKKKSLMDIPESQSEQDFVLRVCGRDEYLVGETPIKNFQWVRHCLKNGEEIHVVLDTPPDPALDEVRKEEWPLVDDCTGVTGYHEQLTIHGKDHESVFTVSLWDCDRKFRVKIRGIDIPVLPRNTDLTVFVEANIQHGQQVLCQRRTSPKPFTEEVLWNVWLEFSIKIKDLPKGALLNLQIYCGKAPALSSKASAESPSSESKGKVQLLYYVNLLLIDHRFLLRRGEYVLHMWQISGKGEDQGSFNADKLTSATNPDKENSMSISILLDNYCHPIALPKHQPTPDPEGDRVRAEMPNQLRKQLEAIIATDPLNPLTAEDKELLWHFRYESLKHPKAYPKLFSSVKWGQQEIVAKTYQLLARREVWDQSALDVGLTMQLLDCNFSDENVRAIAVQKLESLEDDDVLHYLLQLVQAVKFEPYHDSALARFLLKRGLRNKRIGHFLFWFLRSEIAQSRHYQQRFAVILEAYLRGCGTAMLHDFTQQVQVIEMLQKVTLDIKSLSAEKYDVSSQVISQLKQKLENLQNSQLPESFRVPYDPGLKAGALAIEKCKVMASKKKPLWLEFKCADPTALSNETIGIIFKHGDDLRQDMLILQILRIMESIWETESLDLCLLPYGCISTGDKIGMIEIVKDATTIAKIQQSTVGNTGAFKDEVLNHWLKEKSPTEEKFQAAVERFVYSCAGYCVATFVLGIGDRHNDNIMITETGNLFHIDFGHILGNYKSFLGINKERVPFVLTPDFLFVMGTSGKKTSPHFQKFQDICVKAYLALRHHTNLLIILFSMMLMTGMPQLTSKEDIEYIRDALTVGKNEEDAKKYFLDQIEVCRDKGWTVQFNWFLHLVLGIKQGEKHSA
# Summary of the method: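 PI3Kγ preincubated 10 min with compound and PIP2 substrate (MgCl2, DTT), then ATP added for 30 min at room temperature. PIP3 detected by HTRF (665/620 nm ratio) after 18 h. Inhibition ratio at 50 or 10 μmol/L, normalised to no-compound and no-enzyme controls.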
# [6] = molecular target: T5, CYP2C19 (Homo sapiens, UniProt P33261); assay: CYP inhibition test, pooled human liver microsome, CYP2C19; type: in vitro ADME; conditions: 4′-hydroxylation of mephenyloin
# T5 construct: enzyme: pooled human liver microsome 0.2 mg protein/mL; from tissue; host or cells: pooled human liver microsome
# T5 sequence (P33261 whole entry): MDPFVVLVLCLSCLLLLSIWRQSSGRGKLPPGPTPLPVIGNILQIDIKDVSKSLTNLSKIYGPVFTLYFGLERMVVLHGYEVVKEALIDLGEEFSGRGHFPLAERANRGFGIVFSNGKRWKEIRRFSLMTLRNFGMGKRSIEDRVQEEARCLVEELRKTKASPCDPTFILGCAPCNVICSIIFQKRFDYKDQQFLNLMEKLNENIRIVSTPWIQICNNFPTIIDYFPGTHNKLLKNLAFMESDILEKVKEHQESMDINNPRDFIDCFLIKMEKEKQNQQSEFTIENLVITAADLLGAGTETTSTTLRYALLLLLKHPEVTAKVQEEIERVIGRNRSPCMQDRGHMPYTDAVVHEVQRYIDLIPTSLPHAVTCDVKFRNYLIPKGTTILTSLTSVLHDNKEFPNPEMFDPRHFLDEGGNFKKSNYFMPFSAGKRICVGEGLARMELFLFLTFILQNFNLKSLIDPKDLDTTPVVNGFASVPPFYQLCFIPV
# From the text: as §1, §2, §3, §4
# [7] = molecular target: T6, CYP2D6 (Homo sapiens, UniProt P10635); assay: CYP inhibition test, pooled human liver microsome, CYP2D6; type: in vitro ADME; conditions: O-demethylation of dextromethorphan
# T6 construct: enzyme: pooled human liver microsome 0.2 mg protein/mL; from tissue; host or cells: pooled human liver microsome
# T6 sequence (P10635 whole entry): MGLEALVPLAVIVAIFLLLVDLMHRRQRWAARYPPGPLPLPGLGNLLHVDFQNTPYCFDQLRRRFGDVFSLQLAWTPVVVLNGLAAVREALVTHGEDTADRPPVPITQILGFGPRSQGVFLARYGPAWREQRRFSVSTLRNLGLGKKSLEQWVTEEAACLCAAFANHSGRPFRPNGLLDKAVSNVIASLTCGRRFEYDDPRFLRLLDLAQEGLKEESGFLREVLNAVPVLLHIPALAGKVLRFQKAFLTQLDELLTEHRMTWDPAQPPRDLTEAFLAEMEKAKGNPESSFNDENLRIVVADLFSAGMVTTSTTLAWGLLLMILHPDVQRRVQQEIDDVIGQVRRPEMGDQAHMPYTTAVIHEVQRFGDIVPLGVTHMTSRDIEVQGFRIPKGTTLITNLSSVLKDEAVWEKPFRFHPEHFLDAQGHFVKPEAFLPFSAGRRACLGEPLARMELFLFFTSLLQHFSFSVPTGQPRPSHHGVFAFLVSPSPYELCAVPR
# From the text: as §1, §2, §3, §4
# [8] = molecular target: T7, CYP3A4 (Homo sapiens, UniProt P08684); assay: CYP inhibition test, pooled human liver microsome, CYP3A4; type: in vitro ADME; conditions: hydroxylation of terfenadine
# T7 construct: enzyme: pooled human liver microsome 0.2 mg protein/mL; from tissue; host or cells: pooled human liver microsome
# T7 sequence (P08684 whole entry): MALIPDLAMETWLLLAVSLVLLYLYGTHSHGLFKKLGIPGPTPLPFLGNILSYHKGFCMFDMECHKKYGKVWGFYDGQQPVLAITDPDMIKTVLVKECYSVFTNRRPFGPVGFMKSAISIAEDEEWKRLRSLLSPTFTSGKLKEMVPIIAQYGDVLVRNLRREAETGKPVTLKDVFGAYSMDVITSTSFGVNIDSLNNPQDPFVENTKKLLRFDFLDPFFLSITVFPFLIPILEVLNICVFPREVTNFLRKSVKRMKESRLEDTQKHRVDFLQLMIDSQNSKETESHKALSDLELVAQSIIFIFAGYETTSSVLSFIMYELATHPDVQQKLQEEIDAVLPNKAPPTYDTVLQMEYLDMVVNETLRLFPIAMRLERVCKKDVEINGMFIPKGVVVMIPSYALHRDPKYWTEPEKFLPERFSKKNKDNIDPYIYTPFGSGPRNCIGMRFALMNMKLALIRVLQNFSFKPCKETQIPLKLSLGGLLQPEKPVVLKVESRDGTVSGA
# From the text: as §1, §2, §3, §4
# [9] = system: Salmonella typhimurium TA98 line, TA100 line; assay: FAT test (mutagenicity); set-up: key: When the mutagenicity is negative, the compound is shown as (−); When positive, the compound is shown as (+); conditions: TA98 and TA100 lines; non-metabolism-activation and metabolism-activation conditions
# Protocol: 20 μL of Salmonella enterica subsp. typhimurium (Salmonella typhimurium TA98 line, TA100 line) cryopreserved was inoculated to 10 mL of liquid nutrient medium (2.5% Oxoid nutrient broth No. 2) and then precultured at 37° C. for 10 hours with shaking. Regarding TA98 line, after 9 mL of a bacterial suspension was centrifuged (2000×g, 10 minutes) to remove the culture solution, the bacteria was suspended in 9 mL of Micro F buffer solution (K2HPO4: 3.5 g/L, KH2PO4: 1 g/L, (NH4)2SO4: 1 g/L, tri-sodium citric acid dihydrate: 0.25 g/L, MgSO4.7H2O: 0.1 g/L), and then added to 110 mL of Exposure media (Micro F buffer solution containing biotin: 8 μg/mL, histidine: 0.2 μg/mL, glucose: 8 mg/mL). Regarding TA 100 line, 120 mL of Exposure media was added to 3.16 mL of the bacterial suspension to prepare a test bacterial suspension. 12 μL of a solution of a test substance in DMSO (diluted eight times in a common ratio of 2 from the maximum dose of 50 mg/mL); 12 μL of DMSO as a negative control; 50 μg/mL 4-nitroquinoline-1-oxide solution in DMSO for TA98 line or 0.25 μg/mL 2-(2-furyl)-3-(5-nitro-2-furyl)acrylamide solution in DMSO as a positive control for TA 100 line in the case of a non-metabolism-activation condition; 12 μL of 40 μg/mL 2-aminoanthracene solution in DMSO for TA98 line or 20 μg/mL of 2-aminoanthracene solution in DMSO for TA100 line in the case of a metabolism-activation condition; were each mixed with 588 μL of the test bacterial suspension (in the case of a metabolism activation condition, a mixed solution of 498 μL of the test bacterial suspension and 90 μL S9 mix) and then cultured at 37° C. at 90 minutes with shaking. 460 μL of the bacterial suspension to which a test substance was exposed was mixed with 230 μL of Indicator media (a Micro F buffer solution containing 8 μg/mL biotin, 0.2 μg/mL histidine, 8 mg/mL glucose, and 37.5 μg/mL bromocresol purple). 50 μL thereof was dispensed to microplate 48 wells/dose and then statically cultured at 37° C. for 3 days. In a well containing bacteria which obtained proliferation potency by mutation of the amino acid (histidine) synthetase gene, the change of pH caused the color change from purple to yellow. Thus, in 48 wells per dose, the number of the bacteria-proliferation wells in which the color changed to yellow was counted, compared with a group of negative controls, and then evaluated. When the mutagenicity is negative, the compound is shown as (−). When positive, the compound is shown as (+).
# [10] = molecular target: T4, PI-3 kinase γ; assay: PI3Kγ inhibitory activity (Ki value), HTRF; type: biochemical; conditions: Ki=IC50/(1+10 μM ATP/Km)
# Protocol: The PI3Kγ inhibitory activity (Ki value) of a compound was evaluated according to the following procedure:
# 5 μL of a compound solution containing 10% DMSO and 200 μmol/L of a compound was changed to 5 μL of a compound solution containing 10% DMSO and either 200, 64, 20, 6.4, 2, 0.64, or 0.20 μmol/L of the compound (optionally, this is diluted to a lower concentration). Using a method similar to the method for measuring PI3Kγ inhibitory activity, inhibition ratios were measured in the presence of the compound at 50, 16, 5, 1.6, 0.5, 0.16, and 0.05 μmol/L (optionally, a lower concentration). Then an IC50 value was calculated by a logistic approximation method or the linear regression method using two concentrations that across 50% inhibition. Separately, the ATP concentration in the reaction solution (40 μmol/L ATP, 10 mmol/L MgCl2, 5 mmol/L DTT) at the time of the start of a reaction in the absence of the compound was changed to 80, 40, 20, 10, 5, 2.5, 1.25, or 0.625 μmol/L. Then, HTRF ratios were measured by a similar method. The value obtained by subtracting the HTRF ratio at each ATP concentration from the HTRF ratio in the absence of PI-3 kinase γ was defined as the value obtained by multiplying reaction rate (v) at each ATP concentration with a constant. The Michaelis-Menten constant Km was then calculated by the Lineweaver-Burk plot method. The Ki value of a compound was calculated by the following formula.
# Ki=IC50 value/(1+10 μM (test ATP concentration)/Km (μM))
# [11] = Metabolic stability test; type: in vitro ADME; conditions: human liver microsome 0.5 mg protein/mL, 1 mmol/L NADPH, 37° C.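 Note: 100% equals the compound amount at 0 min reaction.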
# Protocol: After a subject compound was reacted for a certain time using a pooled human liver microsome commercially available, a reacted sample and an unreacted sample are compared to calculate a survival ratio, and then the degree of metabolism in the liver was evaluated.
# 0.2 mL of a buffer solution (50 mmol/L of Tris-HCl in pH 7.4, 150 mmol/L of potassium chloride, and 10 mmol/L of magnesium chloride) containing a human liver microsome of 0.5 mg protein/mL was reacted in the presence of 1 mmol/L NADPH at 37° C. for 0 or 30 minutes (oxidative reaction). After reacting, 50 μL of the reaction solution was added to 100 μL of a solution of methanol/acetonitrile (1/1 (v/v)), mixed, and then centrifuged at 3000 rpm for 15 minutes. The test compound in the supernatant was quantitated with LC/MS/MS. The amount of the compound at a reaction time of 0 minute was defined as 100% and, based on that, the percentage of the test compound remained after reacting for 30 minutes was calculated.
# T1 sequence (Q12809 whole entry): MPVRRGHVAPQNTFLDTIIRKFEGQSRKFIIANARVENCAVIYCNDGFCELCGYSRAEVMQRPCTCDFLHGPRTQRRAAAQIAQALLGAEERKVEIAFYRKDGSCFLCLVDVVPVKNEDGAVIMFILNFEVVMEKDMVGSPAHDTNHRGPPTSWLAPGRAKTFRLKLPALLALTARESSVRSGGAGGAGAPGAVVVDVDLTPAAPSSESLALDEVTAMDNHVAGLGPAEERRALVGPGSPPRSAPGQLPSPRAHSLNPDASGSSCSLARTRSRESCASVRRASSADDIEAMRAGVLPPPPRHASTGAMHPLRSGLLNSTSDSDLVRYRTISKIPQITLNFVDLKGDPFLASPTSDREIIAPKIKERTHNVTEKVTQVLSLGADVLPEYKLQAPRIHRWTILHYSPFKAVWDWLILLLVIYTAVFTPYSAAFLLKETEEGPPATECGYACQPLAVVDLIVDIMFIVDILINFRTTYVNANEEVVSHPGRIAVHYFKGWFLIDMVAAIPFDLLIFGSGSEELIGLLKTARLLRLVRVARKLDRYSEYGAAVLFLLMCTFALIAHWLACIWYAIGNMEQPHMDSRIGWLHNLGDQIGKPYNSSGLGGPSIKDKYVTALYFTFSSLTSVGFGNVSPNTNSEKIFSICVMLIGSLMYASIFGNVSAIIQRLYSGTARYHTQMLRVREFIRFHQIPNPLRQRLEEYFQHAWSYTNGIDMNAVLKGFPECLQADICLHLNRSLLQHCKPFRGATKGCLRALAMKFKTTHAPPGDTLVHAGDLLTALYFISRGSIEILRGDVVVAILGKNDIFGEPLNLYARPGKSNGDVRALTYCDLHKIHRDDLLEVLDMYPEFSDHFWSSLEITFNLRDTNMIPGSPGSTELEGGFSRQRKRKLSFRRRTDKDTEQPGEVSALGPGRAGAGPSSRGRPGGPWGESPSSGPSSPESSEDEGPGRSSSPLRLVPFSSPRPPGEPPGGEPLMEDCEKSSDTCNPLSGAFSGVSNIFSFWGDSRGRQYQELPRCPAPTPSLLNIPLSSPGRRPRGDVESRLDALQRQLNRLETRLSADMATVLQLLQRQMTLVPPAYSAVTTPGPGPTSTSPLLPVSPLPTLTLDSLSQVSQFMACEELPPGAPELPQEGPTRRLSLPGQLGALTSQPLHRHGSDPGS
SMILES,inhibition ratio for the maximum tail current (IKr) [1],solubility at 16 h [2],inhibition at 50 µM ([5]; PI3Kγ),mutagenicity (FAT test) [9],inhibition at 10 µM ([5]; compound at 10 μmol/L),further results
CNC(=O)Nc1cc2n(n1)CCN2c1cc(Br)cc(C(=O)N2CCNCC2)c1 [Compound I-185],8.3%,> 50 µM,≥ 95%,,,IC50 [3]: > 20 µM; IC50 [4]: > 20 µM; IC50 [6]: > 20 µM; IC50 [7]: > 20 µM; IC50 [8]: > 20 µM
CNC(=O)Nc1cc2n(n1)CCN2c1cc(Br)cc(C(=O)N2CCCC2)c1 [Compound I-181],,,≥ 95%,(−),,
CC(C)Oc1cc(C(=O)Nc2cc3n(n2)CCN3c2ccc3c(c2)CCN(C)C3=O)on1 [Compound I-403],,,,(−),≥ 95%,
COc1cc(N2CCc3nc(NC(=O)NCCC(=O)O)sc3C2)nc(OC)n1.Cl.Cl [Compound I-262],1.6%,> 50 µM,,,,"inhibition at 10 µM ([5]; PI3Kγ, compound at 10 μM): ≥ 95%; Ki [10]: 0.047 µM; percentage of the test compound remained after reacting for 30 minutes [11]: 92.8%"
COc1cc(N2CCc3nc(NC(=O)Nc4ccccc4)sc3C2)nc(OC)n1 [Compound I-203],,,95%,(−),,
CNC(=O)Nc1nc2c(s1)CN(c1nc(OC)nc(OC)n1)CC2 [Compound I-327],,,,(−),84%,
